Test results: publication PMC11676883, “Coumarins and Hesperetin Inhibit Human Respiratory Syncytial Virus Infection” (International Journal of Molecular Sciences, 2024)
Where “and” joins values, the source holds several entries; their conditions need not be identical. Identical values can stand only once. Entries after “also recorded” stand apart in the source; their conditions may differ. Like-named read-outs stand apart in the source and are kept apart here.

Assays:
[1] = MTT cytotoxicity assay on A549 cells; conditions: human
A549 cells [2] = assay: MTT cytotoxicity assay on A549 cells; conditions: A549 cells
RSV-luc (rA2-Rluc) [3] = assay: Inhibition assay of β-cyclodextrin-encapsulated compounds on differentiated HBE cultures inoculated with RSV-luc; conditions: for inhibition compared with the PC (result in words) / mean difference vs positive control: encapsulated; for mean difference vs positive control / decrease in RSV infection: RSV-luc; for decrease in RSV infection: encapsulated with β-cyclodextrin, 48 h
RSV-luc (rA2-Rluc) [4] = conditions: A549 cells; for inhibition of RSV-luc (result in words): not encapsulated, luciferase RLU; for Selectivity Index (SI): from CC50 and IC50
RSV-luc (rA2-Rluc) [5] = assay: microbe, parasite or virus in culture; conditions: human respiratory syncytial virus, A549, read-out: IC50 (concentration inhibiting 50% viral replication)
[6] = tested on: rgRSV (recombinant green fluorescent protein-expressing RSV, strain A2); assay: Inhibition test on rgRSV-infected HEp-2 cells (GFP foci); conditions: 24-72 h, coumarin, esculin, umbelliferone 300 µM, esculetin 150 µM, 4-methyl 150 µM
influenza virus = tested on: influenza virus; design: method as in PMID 20092255; conditions: plaque reduction assay, cited from earlier work
A549 cells [7] = conditions: human, 48 h
[8] = MTT, 24 h, modified umbelliferones

Row | Compound | CC50 [1] [µM] | concentration at which the cells were 80% viable (A549 cells [2]; MTT, 48 h) [µM] | inhibition compared with the PC (result in words) (RSV-luc (rA2-Rluc) [3]) | inhibition of RSV-luc (result in words) (RSV-luc (rA2-Rluc) [4]) | Selectivity Index (SI) (RSV-luc (rA2-Rluc) [4]) | IC50 (RSV-luc (rA2-Rluc) [5]) [µM] | inhibition of rgRSV (result in words) [6] | concentration at which the cells were 80% viable (A549 cells [7]) [µM] | viral inhibition at 24 h (RSV-luc (rA2-Rluc) [4]; RSV-luc) | viral inhibition at 48 h (RSV-luc (rA2-Rluc) [4]; RSV-luc) | further results
1 | O=c1ccc2cc(O[C@@H]3O[C@H](CO)[C@@H](O)[C@H](O)[C@H]3O)c(O)cc2o1 [Esculin, 6,7-Dihydroxycoumarin-6-glucoside] | 1930 | 300 | no significant inhibition | did not show inhibition | 1.21 | 1590 | did not |  |  |  | 
2 | O=c1ccc2ccc3occc3c2o1 [angelicin] |  |  |  |  |  |  |  |  |  |  | reduction of influenza virus infection (influenza virus; 20 nM): 50%; reduction of influenza virus infection (result in words) (influenza virus; 100 nM): completely
3 | O=c1ccc2ccc(O)cc2o1 [Umbelliferone, 7-Hydroxycoumarin] | 2400 | 300 | no significant inhibition | did not show inhibition | 0.46 | 5140 | did not |  |  |  | 
4 | O=c1ccc2ccccc2o1 [Coumarin, 1,2 Benzopyrone] | 3560 |  |  | did not show inhibition; also recorded: no reduction in infection | 2.16 | 1650 | did not | 300 |  |  | mean difference vs positive control (RSV-luc (rA2-Rluc) [3]): 19,333,333 RLU
5 | COc1ccc(C2CC(=O)c3c(O)cc(O)cc3O2)cc1O (stereo not drawn) [Hesperetin, 3′,5,7-Trihydroxy-4′-methoxyflavanone] | 2670 |  | no significant inhibition | reduced luciferase gene expression | 7.39 | 360 |  | 300 | 57% | not maintained | decrease in RSV infection (RSV-luc (rA2-Rluc) [3]): ~7% and 7.5%
6 | O=c1ccc2cc(O)c(O)cc2o1 [Esculetin, 6,7-Dihydroxycoumarin] | 1410 |  |  | reduced luciferase gene expression | 7.56 | 180 | inhibited rgRSV effectively | 125 | approximately 50% | 70% | decrease in RSV infection (RSV-luc (rA2-Rluc) [3]): ~15%; mean difference vs positive control (RSV-luc (rA2-Rluc) [3]): 12,600,000 RLU
7 | CC(=O)Oc1ccc2ccc(=O)oc2c1 [acetylated umbelliferone, 7-Acetoxycoumarin] |  |  |  |  |  |  |  |  |  |  | concentration that resulted in >80% viable cells (A549 cells [2]; [8]): 20 µM; cytotoxicity compared (result in words) (A549 cells [2]; [8]): higher cytotoxicity than prenylated umbelliferone
8 | 5,7-Dihydroxycoumarin-4-methylcoumarin [4-methyl esculetin] |  | 75 | no significant inhibition | reduced luciferase gene expression |  |  | inhibited rgRSV effectively |  | about 40% | inhibition doubling | CC50 (A549 cells [2]; read-out: CC50 (concentration causing 50% cytotoxicity), MTT, extrapolated from CC90 and CC100): 1040 µM; IC50 (RSV-luc (rA2-Rluc) [4]; read-out: IC50 (concentration inhibiting 50% viral replication), RSV-luc): 70 µM
9 | CN[C@@H]1C[C@H]2O[C@@](C)([C@@H]1OC)n1c3ccccc3c3c4c(c5c6ccccc6n2c5c31)C(=O)NC4 [Staurosporine, reference compound] |  |  |  |  |  |  |  |  |  |  | cells unavailable (A549 cells [2]; Staurosporine 1 mM, 48 h): 50%
10 | OC[C@H]1O[C@@H]2O[C@H]3[C@H](O)[C@@H](O)[C@@H](O[C@H]4[C@H](O)[C@@H](O)[C@@H](O[C@H]5[C@H](O)[C@@H](O)[C@@H](O[C@H]6[C@H](O)[C@@H](O)[C@@H](O[C@H]7[C@H](O)[C@@H](O)[C@@H](O[C@H]8[C@H](O)[C@@H](O)[C@@H](O[C@H]1[C@H](O)[C@H]2O)O[C@@H]8CO)O[C@@H]7CO)O[C@@H]6CO)O[C@@H]5CO)O[C@@H]4CO)O[C@@H]3CO [β-cyclodextrin] |  |  |  |  |  |  |  |  |  |  | decrease of the available cells (A549 cells [7]): about 5%
